# Like-named read-outs stand apart in the source and are kept apart here.
# Key:
# [1] = system: pain induced by phenylquinone; test: phenylquinone writhing test (oral anti-PQW), analgesic activity; assay type: in vivo, female white mice; settings: for ED50: Mus musculus, po, mice, oral, phenylquinone writhing, read-out: EFFECT ED50 Oral Anti-PQW
# Protocol: A standard procedure for detecting and comparing the analgesic activity of compounds in this series for which there is good correlation with human efficacy is the standard phenylquinone writhing test modified from Siegmund, et al., Proc. Soc. Exp. Biol. Med., 95, 729 (1957). A test compound suspended in 1% methocel® was given orally to fasted (17-21 hours) female white mice, 5-20 animals per double blind test. Aqueous (0.01% phenyl-p-benzoquinone) phenylquinone was injected intraperitoneally at 24 minutes later using 0.20 ml per mouse. […] The effective analgesic dose for 50% of the mice (ED50) was calculated by the moving average method of Thompson, W. R., Bact. Rev., 11, 115-145 (1947).
# [2] = system: induction of Straub tail in mice by a highly addicting agonist such as morphine; test: anti-Straub tail test, antagonism of morphine-induced Straub tail (narcotic antagonism); assay type: in vivo, Female CF1 S mice; settings: for ED50: Mus musculus; for ED50 / EFFECT ED50 subcutaneous(s.c.) Anti-Straub Tail: mice, vs morphine sulfate 30 mg/kg i.p.
# Straub tail = Straub tail reaction (oral), narcotic agonist effect; assay type: in vivo, CF1 S female mice; settings: Mus musculus, mice
# Protocol: Narcotic analgesics produce in mice an erection and arching of the tail (90° or more) which is referable to spinal cord stimulation. This Straub tail reaction is not produced by other analgesics, including the narcotic antagonists.
# The method used was modified from Shemano, I., and Wendel, H., Tox. Appl. Pharm., 6, 334-9 (1964). CF1 S female mice (18-21 g), 10-20 mice per dose, were intubated with log scaled doses of analgesic in 1% aqueous methylcellulose. A positive Straub tail response was recorded if a tail was erected 90° or more for 5 seconds at any time within 24 minutes after dosing. A quantal Straub tail ED50 was calculated by the moving average method [Thompson, W. R., Bact. Rev., 11, 115-145 (1947)].
# [3] = sc, s.c., read-out: EFFECT ED50 subcutaneous(s.c.) Anti-Straub Tail
# [4] = ip, i.p., read-out: EFFECT ED50 Intraperitoneal(i.p.) Anti-Straub Tail
smiles,measurement,setting,value
COc1cccc2c1OC1CCCC3CN(CC4CCCO4)CCC231 (centres unmarked) [Example 39],ED50,[1],16.7 mg/kg
same,ED50,[2]; [3],4.7 mg/kg
CCCCCN1CCC23c4cccc(O)c4OC2CCCC3C1 (centres unmarked) [Example 26],ED50,[1],5.3 mg/kg
same,ED50,[2]; [3],> 27 mg/kg
same,ED50,Straub tail,37 mg/kg
"CCN1CC[C@]23c4cccc(O)c4O[C@H]2CCC[C@H]3C1 (relative stereo) [Example 14b, 3-Ethyl-2,3,4,4aα,5,6,7,7aα-octahydro-1H-benzo[4,5]furo[3,2-e]isoquinolin-9-ol]",ED50,[1],135 mg/kg
same,ED50,[2]; [3],0.028 mg/kg
same,ED50,Straub tail,> 135 mg/kg
Oc1cccc2c1OC1CCCC3CN(Cc4ccco4)CCC231 (centres unmarked) [Example 38],ED50,[1],108 mg/kg
same,ED50,[2]; [3],7.2 mg/kg
same,ED50,Straub tail,> 135 mg/kg
Oc1cccc2c1OC1CCCC3CN(CC4CCCO4)CCC231 (centres unmarked) [Example 40],ED50,[1],11.8 mg/kg
same,ED50,[2]; [3],0.19 mg/kg
"CN1CCC23c4cccc(O)c4OC2CCCC3C1 (single isomer, unassigned; isomer 3) [Example 3 (-)isomer, 3-Methyl-2,3,4,4aα,5,6,7,7aα-octahydro-1H-benzo[4,5]furo[3,2-e]isoquinolin-9-ol]",EFFECT ED50 subcutaneous(s.c.) Anti-Straub Tail,"[2]; s.c., listed as 3 (-)isomer",0.14
same,ED50,Straub tail,> 135 mg/kg
"CC(C)=CCN1CC[C@]23c4cccc(O)c4O[C@H]2CCC[C@H]3C1 (relative stereo) [Example 18, 3-(3'-methyl-2'-butenyl)-2,3,4,4aα,5,6,7,7aα-octahydro-1H-benzo[4,5]furo[3,2-e]isoquinolin-9-ol]",ED50,[1],10.8 mg/kg
same,ED50,[2]; [3],> 27 mg/kg
same,ED50,Straub tail,32 mg/kg
CCCCN1CC[C@]23c4cccc(OC)c4O[C@H]2CCC[C@H]3C1 (relative stereo) [Example 23],ED50,[1],33 mg/kg
same,ED50,[2]; [3],0.82 mg/kg
same,ED50,Straub tail,> 135 mg/kg
"COc1cccc2c1O[C@H]1CCC[C@H]3CN(C)CC[C@@]231 (relative stereo) [Example 2, 9-Methoxy-3-methyl-2,3,4,4aα-5,6,7,7aα-octahydro-1H-benzo[4,5]furo[3,2-e]isoquinoline]",ED50,[1],9.8 mg/kg
same,ED50,[2]; [4],10.1 mg/kg
same,ED50,Straub tail,> 135 mg/kg
"COc1cccc2c1O[C@H]1CCC[C@H]3CN(CC4CC4)CC[C@@]231 (relative stereo) [Example 4, 3-Cyclopropylmethyl-9-methoxy-2,3,4,4aα,5,6,7,7aα-octahydro-1H-benzo[4,5]furo[3,2-e]isoquinoline]",ED50,[1],19.7 mg/kg
same,ED50,[2]; [4],0.31 mg/kg
same,ED50,Straub tail,> 135 mg/kg
"CCN1CC[C@]23c4cccc(OC)c4O[C@H]2CCC[C@H]3C1 (relative stereo) [Example 14a, 3-ethyl-9-methoxy-2,3,4,4aα,5,6,7,7aα-octahydro-1H-benzo[4,5]furo[3,2-e] isoquinoline]",ED50,[1],63 mg/kg
same,ED50,[2]; [3],0.71 mg/kg
same,ED50,Straub tail,> 135 mg/kg
"CC(C)CCN1CC[C@]23c4cccc(O)c4O[C@H]2CCC[C@H]3C1 (relative stereo) [Example 19, 3-(3'-Methylbutyl)-2,3,4,4aα,5,6,7,7aα-octahydro-1H-benzo[4,5]furo[3,2-e]isoquinolin-9-ol]",ED50,[1],33 mg/kg
same,ED50,[2]; [3],0.64 mg/kg
same,ED50,Straub tail,> 135 mg/kg
COc1cccc2c1OC1CCCC3CN(Cc4cccs4)CCC231 (centres unmarked) [Example 41],ED50,[1],48 mg/kg
same,ED50,[2]; [3],> 27 mg/kg
same,ED50,Straub tail,> 135 mg/kg
Oc1cccc2c1OC1CCCC3CN(Cc4cccs4)CCC231 (centres unmarked) [Example 42],ED50,[1],108 mg/kg
same,ED50,Straub tail,> 135 mg/kg
CC(C)CN1CCC23c4cccc(O)c4OC2CCCC3C1 (centres unmarked) [Example 32],ED50,[1],63 mg/kg
same,ED50,[2]; [3],0.03 mg/kg
same,ED50,Straub tail,> 135 mg/kg
"C=CCN1CC[C@]23c4cccc(O)c4O[C@H]2CCC[C@H]3C1 (relative stereo) [Example 16, 3-Allyl-2,3,4,4aα,5,6,7,7aα-octahydro-1H-benzo[4,5]furo[3,2-e]isoquinolin-9-ol]",ED50,[1],81 mg/kg
same,ED50,[2]; [3],0.03 mg/kg
same,ED50,Straub tail,> 81 mg/kg
COc1cccc2c1OC1CCCC3CN(CC(C)C)CCC231 (centres unmarked) [Example 31],ED50,[1],94 mg/kg
same,ED50,[2]; [3],0.24 mg/kg
same,ED50,Straub tail,> 135 mg/kg
"COc1cccc2c1O[C@H]1CCC[C@H]3CN(CC=C(C)C)CC[C@@]231 (relative stereo) [Example 17, 3-(3'-Methyl-2'-butenyl)-9-methoxy-2,3,4,4aα,5,6,7,7aα-octahydro-1H-benzo[4,5]furo[3,2-e]isoquinoline]",ED50,[1],18.7 mg/kg
same,ED50,[2]; [3],7.8 mg/kg
same,ED50,Straub tail,> 135 mg/kg
CCCCN1CCC23c4cccc(O)c4OC2CCCC3C1 (centres unmarked) [Example 24],ED50,[1],23 mg/kg
same,ED50,[2]; [3],0.032 mg/kg
same,ED50,Straub tail,> 135 mg/kg
"CN1CC[C@]23c4cccc(O)c4O[C@H]2CCC[C@H]3C1 (relative stereo) [Example 3, 3-Methyl-2,3,4,4aα,5,6,7,7aα-octahydro-1H-benzo[4,5]furo[3,2-e]isoquinolin-9-ol]",ED50,[1],3.5 mg/kg
same,ED50,[2]; [3],0.27 mg/kg
same,ED50,Straub tail,> 135 mg/kg
CCCN1CC[C@]23c4cccc(OC)c4O[C@H]2CCC[C@H]3C1 (relative stereo) [Example 21],ED50,[1],78 mg/kg
same,ED50,[2]; [3],0.08 mg/kg
same,ED50,Straub tail,> 135 mg/kg
CCCCCCCCN1CCC23c4cccc(OC)c4OC2CCCC3C1 (centres unmarked) [Example 29],ED50,[1],7.2 mg/kg
same,ED50,[2]; [3],> 27 mg/kg
"COc1cccc2c1O[C@H]1CCC[C@H]3CN(Cc4ccccc4)CC[C@@]231 (relative stereo) [Example 10, 3-Benzyl-9-methoxy-2,3,4,4aα,5,6,7,7aα-octahydro-1H-benzo[4,5]furo[3,2-e]isoquinoline]",ED50,[1],48 mg/kg
same,ED50,[2]; [3],48 mg/kg
same,"narcotic antagonism, in words",[2]; mouse anti-Straub tail test,pure narcotic antagonists
same,ED50,Straub tail,> 81 mg/kg
CCCCCCN1CCC23c4cccc(O)c4OC2CCCC3C1 (centres unmarked) [Example 28],ED50,[1],2.9 mg/kg
same,ED50,Straub tail,26 mg/kg
"Oc1cccc2c1O[C@H]1CCC[C@H]3CN(CC4CCC4)CC[C@@]231 (relative stereo) [Example 7, 3-Cyclobutylmethyl-2,3,4,4aα,5,6,7,7aα-octahydro-1H-benzo[4,5]furo[3,2-e]isoquinoline-9-ol]",ED50,[1],81 mg/kg
same,ED50,[2]; [4],0.64 mg/kg
same,ED50,Straub tail,> 81 mg/kg
CCCCCN1CCC23c4cccc(OC)c4OC2CCCC3C1 (centres unmarked) [Example 25],ED50,[1],6.2 mg/kg
same,ED50,[2]; [3],> 27 mg/kg
same,ED50,Straub tail,57 mg/kg
CCCCCCCCN1CCC23c4cccc(O)c4OC2CCCC3C1 (centres unmarked) [Example 30],ED50,[1],4.2 mg/kg
same,ED50,Straub tail,54 mg/kg
"CN1CC[C@]23c4ccccc4O[C@H]2CCC[C@H]3C1 (relative stereo) [Example 1, 3-Methyl-2,3,4,4aα,5,6,7,7aα,octahydro-1H-benzo[4,5]furo[3,2-e]isoquinoline]",ED50,[1],14 mg/kg
same,ED50,Straub tail,> 81 mg/kg
"Oc1cccc2c1O[C@H]1CCC[C@H]3CN(CC4CC4)CC[C@@]231 (relative stereo) [Example 5, 3-Cyclopropylmethyl-2,3,4,4aα,5,6,7,7aα-octahydro-1H-benzo[4,5]furo[3,2-e]isoquinolin-9-ol]",ED50,[1],0.75 mg/kg
same,analgesic potency compared with morphine,"[1]; mouse analgesia data, relative to morphine",several times greater potency than morphine
same,ED50,[2]; [3],0.006 mg/kg
same,ED50,Straub tail,> 81 mg/kg
COc1cccc2c1OC1CCCC3CN(Cc4ccco4)CCC231 (centres unmarked) [Example 37],ED50,[1],84 mg/kg
same,ED50,[2]; [3],12 mg/kg
same,ED50,Straub tail,> 135 mg/kg
"Oc1cccc2c1O[C@H]1CCC[C@H]3CNCC[C@@]231 (relative stereo) [Example 13, 2,3,4,4aα,5,6,7,7aα-octahydro-1H-benzo[4,5]furo[3,2-e]isoquinol in-9-ol]",ED50,[1],15 mg/kg
same,ED50,[2]; [3],> 27 mg/kg
same,ED50,Straub tail,> 135 mg/kg
"COc1cccc2c1O[C@H]1CCC[C@H]3CNCC[C@@]231 (relative stereo) [Example 12, 9-Methoxy-2,3,4,4aα,5,6,7,7aα-octahydro-1H-benzo[4,5]furo[3,2-e]isoquinoline]",ED50,[1],47 mg/kg
same,ED50,Straub tail,> 81 mg/kg
CCCN1CC[C@]23c4cccc(O)c4O[C@H]2CCC[C@H]3C1 (relative stereo) [Example 22],ED50,[1],112 mg/kg
same,ED50,[2]; [3],0.008 mg/kg
same,ED50,Straub tail,> 135 mg/kg
CCCCCCN1CCC23c4cccc(OC)c4OC2CCCC3C1 (centres unmarked) [Example 27],ED50,[1],7 mg/kg
same,ED50,[2]; [3],> 27 mg/kg
same,ED50,Straub tail,25 mg/kg
"CC(C)=CCN1CCC2(C)c3cc(O)ccc3CC1C2C (centres unmarked) [Pentazocine, reference compound]",ED50,[1],56 mg/kg
same,ED50,[2]; [3],4 mg/kg
same,ED50,Straub tail,> 135 mg/kg
COc1cccc2c1OC1CCCC3CN(CC4CCCCC4)CCC231 (centres unmarked) [Example 33],ED50,[1],135 mg/kg
same,ED50,Straub tail,> 135 mg/kg
"CN1CCC23c4cccc(O)c4OC2CCCC3C1 (single isomer, unassigned; isomer 3) [Example 3 (+)isomer, 3-Methyl-2,3,4,4aα,5,6,7,7aα-octahydro-1H-benzo[4,5]furo[3,2-e]isoquinolin-9-ol]",EFFECT ED50 subcutaneous(s.c.) Anti-Straub Tail,"[2]; s.c., listed as 3 (+)isomer",3.3
"Oc1cccc2c1O[C@H]1CCC[C@H]3CN(Cc4ccccc4)CC[C@@]231 (relative stereo) [Example 11, 3-Benzyl-2,3,4,4aα,5,6,7,7aα-octahydro-1H-benzo[4,5]furo[3,2-e]isoquinoline-9-ol]",ED50,[1],29 mg/kg
same,ED50,[2]; [3],1.2 mg/kg
same,ED50,Straub tail,> 81 mg/kg

# Reference: patent US4243668A, “Octahydro-1H-benzo[4,5]furo[3,2-e]-isoquinoline analgesic and narcotic antagonistic compounds” (priority 1979, dated 1981)
